Data published in patent publication US10167262B2, “Herbicidal substituted 3-arylpyrazoles” (FMC CORPORATION, priority 2014, dated 2019).

How the values were obtained:
Type in all cases: in vivo
[1] = test system: large (Lg) crabgrass (Digitaria sanguinalis); assay: Test C pre-/postemergence greenhouse test, plant response rating 0-100; conditions: Postemergence
Procedure, shortened: (§1)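 Scores run from 0, no effect, to 100, complete control, assigned by eye after treated plants and controls spent 13 to 15 days in a greenhouse. Soil-applied treatment went onto freshly sown seed in loam and sand; foliar treatment hit seedlings at the 1- to 4-leaf stage.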

[2] = test system: yellow nutsedge (Cyperus esculentus); assay: as above; conditions: Postemergence
Procedure, shortened: as §1

[3] = test system: giant foxtail (Setaria faberii); assay: as above; conditions: Postemergence
Procedure, shortened: as §1

[4] = test system: lambsquarters (Chenopodium album); assay: as above; conditions: Postemergence
Procedure, shortened: as §1

[5] = test system: galium (catchweed bedstraw, Galium aparine); assay: as above; conditions: Postemergence
Procedure, shortened: as §1

[6] = test system: morningglory (Ipomoea coccinea); assay: as above; conditions: Postemergence
Procedure, shortened: as §1

[7] = test system: johnsongrass (Sorghum halepense); assay: as above; conditions: Postemergence
Procedure, shortened: as §1

soybean (Glycine max) = assay: as above; conditions: Postemergence
Procedure, shortened: as §1

[8] = test system: blackgrass (Alopecurus myosuroides); assay: as above; conditions: Postemergence; for Plant response rating, Blackgrass: scale 0 to 100
Procedure, shortened: as §1

[9] = test system: winter wheat (Triticum aestivum); assay: as above; conditions: Postemergence
Procedure, shortened: as §1

kochia (Kochia scoparia) = assay: Test C postemergence greenhouse test, plant response rating 0-100
Procedure, shortened: (§2)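 Potted in peat/vermiculite mix; postemergence application at 1–4 leaves (2–18 cm); greenhouse 13–15 d; visual score 0–100 relative to untreated plants; dash = no test result.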

[10] = test system: chickweed (common chickweed, Stellaria media); assay: as above
Procedure, shortened: as §2

wild oat (Avena fatua) = assay: as above
Procedure, shortened: as §2

Cn1cc(C(=NN2CCCC2)c2ccccc2)c(-c2cc(Cl)c(Cl)c(Cl)c2)n1 [Compound 25]
15: Plant response rating (0 to 100), Kochia (kochia (Kochia scoparia); 125 g ai/ha) | Plant response rating, Kochia (kochia (Kochia scoparia); 250 g ai/ha, scale 0 to 100)
0: Plant response rating (0 to 100), Crabgrass, Large ([1]; 31 g ai/ha) | Plant response rating (0 to 100), Crabgrass, Large ([1]; 62 g ai/ha) | Plant response rating (0 to 100), Crabgrass, Large ([1]; 125 g ai/ha) | Plant response rating, Crabgrass, Large ([1]; 250 g ai/ha, scale 0 to 100) | Plant response rating (0 to 100), Nutsedge, Yellow ([2]; 62 g ai/ha) | Plant response rating (0 to 100), Nutsedge, Yellow ([2]; 125 g ai/ha) | Plant response rating, Nutsedge, Yellow ([2]; 250 g ai/ha, scale 0 to 100) | Plant response rating (0 to 100), Foxtail, Giant ([3]; 31 g ai/ha) | Plant response rating (0 to 100), Foxtail, Giant ([3]; 62 g ai/ha) | Plant response rating (0 to 100), Foxtail, Giant ([3]; 125 g ai/ha) | Plant response rating, Foxtail, Giant ([3]; 250 g ai/ha, scale 0 to 100) | Plant response rating (0 to 100), Lambsquarters ([4]; 62 g ai/ha) | Plant response rating (0 to 100), Lambsquarters ([4]; 125 g ai/ha) | Plant response rating (0 to 100), Galium ([5]; 31 g ai/ha) | Plant response rating (0 to 100), Galium ([5]; 62 g ai/ha) | Plant response rating (0 to 100), Galium ([5]; 125 g ai/ha) | Plant response rating, Galium ([5]; 250 g ai/ha, scale 0 to 100) | Plant response rating (0 to 100), Morningglory ([6]; 62 g ai/ha) | Plant response rating (0 to 100), Morningglory ([6]; 125 g ai/ha) | Plant response rating, Morningglory ([6]; 250 g ai/ha, scale 0 to 100) | Plant response rating (0 to 100), Johnsongrass ([7]; 62 g ai/ha) | Plant response rating (0 to 100), Johnsongrass ([7]; 125 g ai/ha) | Plant response rating, Johnsongrass ([7]; 250 g ai/ha, scale 0 to 100) | Plant response rating (0 to 100), Soybean (soybean (Glycine max); 62 g ai/ha) | Plant response rating (0 to 100), Soybean (soybean (Glycine max); 125 g ai/ha) | Plant response rating (0 to 100), Blackgrass ([8]; 31 g ai/ha) | Plant response rating (0 to 100), Blackgrass ([8]; 62 g ai/ha) | Plant response rating, Blackgrass ([8]; 125 g ai/ha) | Plant response rating (0 to 100), Wheat ([9]; 62 g ai/ha) | Plant response rating (0 to 100), Wheat ([9]; 125 g ai/ha) | Plant response rating, Wheat ([9]; 250 g ai/ha, scale 0 to 100) | Plant response rating (0 to 100), Kochia (kochia (Kochia scoparia); 62 g ai/ha) | Plant response rating (0 to 100), Oat, Wild (wild oat (Avena fatua); 62 g ai/ha) | Plant response rating (0 to 100), Oat, Wild (wild oat (Avena fatua); 125 g ai/ha)
10: Plant response rating, Soybean (soybean (Glycine max); 250 g ai/ha, scale 0 to 100) | Plant response rating (0 to 100), Chickweed ([10]; 31 g ai/ha) | Plant response rating, Oat, Wild (wild oat (Avena fatua); 250 g ai/ha, scale 0 to 100)
5: Plant response rating, Blackgrass ([8]; 250 g ai/ha)
75: Plant response rating (0 to 100), Chickweed ([10]; 62 g ai/ha) | Plant response rating (0 to 100), Chickweed ([10]; 125 g ai/ha) | Plant response rating, Chickweed ([10]; 250 g ai/ha, scale 0 to 100)
20: Plant response rating, Lambsquarters ([4]; 250 g ai/ha, scale 0 to 100)
